Results published in US12485123B2, “1H-pyrazolo[4,3-d]pyrimidine compounds as toll-like receptor 7 (TLR7) agonists” (BRISTOL-MYERS SQUIBB COMPANY, priority 2020, dated 2025).

Key:
human TLR7 = target: T1, human TLR7 (Homo sapiens, UniProt Q9NYK1); assay: Human TLR7 agonist activity reporter assay (HEK-Blue TLR7 cells, SEAP reporter); format: cell-based; settings: human TLR7 (hTLR7) reporter assay, SEAP readout after 18 h, average where assay repeated, read-out: TLR7 Agonism EC50
T1 construct: host or cells: HEK-Blue TLR7 cells (engineered human embryonic kidney cells)
T1 sequence (Q9NYK1 27-1049): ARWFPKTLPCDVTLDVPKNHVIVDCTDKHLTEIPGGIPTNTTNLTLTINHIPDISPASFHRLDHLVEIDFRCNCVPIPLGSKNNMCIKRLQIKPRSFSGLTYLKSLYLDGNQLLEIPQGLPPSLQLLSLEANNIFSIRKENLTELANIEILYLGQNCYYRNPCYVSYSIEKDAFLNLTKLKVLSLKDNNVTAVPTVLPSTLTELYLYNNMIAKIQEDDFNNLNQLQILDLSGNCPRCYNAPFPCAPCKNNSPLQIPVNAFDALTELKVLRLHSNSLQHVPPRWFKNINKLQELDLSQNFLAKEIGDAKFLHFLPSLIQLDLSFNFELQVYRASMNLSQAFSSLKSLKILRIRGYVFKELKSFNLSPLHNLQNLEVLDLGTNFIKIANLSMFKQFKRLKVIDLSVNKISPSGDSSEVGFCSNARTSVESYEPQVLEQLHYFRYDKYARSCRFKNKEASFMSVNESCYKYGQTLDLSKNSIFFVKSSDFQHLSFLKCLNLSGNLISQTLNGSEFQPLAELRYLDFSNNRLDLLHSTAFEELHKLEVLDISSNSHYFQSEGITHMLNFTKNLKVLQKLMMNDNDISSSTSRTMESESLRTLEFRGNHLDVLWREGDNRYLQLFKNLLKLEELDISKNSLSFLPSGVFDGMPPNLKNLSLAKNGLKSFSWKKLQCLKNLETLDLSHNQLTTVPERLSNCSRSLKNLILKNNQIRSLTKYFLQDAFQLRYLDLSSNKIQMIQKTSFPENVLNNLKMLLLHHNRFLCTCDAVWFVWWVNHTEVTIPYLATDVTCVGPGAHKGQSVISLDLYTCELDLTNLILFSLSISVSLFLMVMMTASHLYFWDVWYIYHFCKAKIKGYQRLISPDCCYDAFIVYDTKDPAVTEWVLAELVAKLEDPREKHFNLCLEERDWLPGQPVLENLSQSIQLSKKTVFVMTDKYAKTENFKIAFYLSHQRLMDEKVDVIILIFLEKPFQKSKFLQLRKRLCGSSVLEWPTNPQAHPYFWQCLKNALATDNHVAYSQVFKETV
Procedure: Human TLR7 Agonist Activity Assay
This procedure describes a method for assaying human TLR7 (hTLR7) agonist activity of the compounds disclosed in this specification.
HEK-Blue™ TLR7 cells were added to each well of a 384-well tissue-culture plate (15,000 cells per well) and incubated 16-18 h at 37° C., 5% CO2. Compounds (100 nl) were dispensed into wells containing the HEK-Blue™ TLR cells and the treated cells were incubated at 37° C., 5% CO2. After 18 h treatment ten microliters of freshly-prepared Quanti-Blue™ reagent (Invivogen) was added to each well, incubated for 30 min (37° C., 5% CO2) and SEAP levels measured using an Envision plate reader (OD=620 nm).

CD69 = assay: Induction of CD69 in human whole blood; format: cell-based; settings: 17 hrs incubation, CD69 surface staining, 100% set to 1 uM of resiquimod, average where assay repeated, read-out: hWB CD69 EC50
Procedure: Induction of Type I Interferon Genes (MX-1) and CD69 in Human Blood
The induction of Type I interferon (IFN) MX-1 genes and the B-cell activation marker CD69 are downstream events that occur upon activation of the TLR7 pathway. The following is a human whole blood assay that measures their induction in response to a TLR7 agonist.
Heparinized human whole blood was harvested from human subjects and treated with test TLR7 agonist compounds at 1 mM. The blood was diluted with RPMI 1640 media and Echo was used to predot 10 nL per well giving a final concentration of 1 uM (10 nL in 10 uL of blood). After mixing on a shaker for 30 sec, the plates were covered and placed in a 37° C. chamber for o/n=17 hrs. Fixing/lysis buffer was prepared (5×→1× in H2O, warm at 37° C.; Cat #BD 558049) and kept the perm buffer (on ice) for later use.
For surface markers staining (CD69): prepared surface Abs: 0.045 ul hCD14-FITC (ThermoFisher Cat #MHCD1401)+0.6 ul hCD19-ef450 (ThermoFisher Cat #48-0198-42)+1.5 ul hCD69-PE (cat #BD555531)+0.855 ul FACS buffer. Added 3 ul/well, spin 1000 rpm for 1 min and mixed on shaker for 30 sec, put on ice for 30 min. Stop stimulation after 30 minutes with 70 uL of prewarmed 1× fix/lysis buffer and use Feliex mate to resuspend (15 times, change tips for each plate) and incubate at 37 C for 10 minutes.
Centrifuge at 2000 rpm for 5 minutes aspirate with HCS plate washer, mix on shaker for 30 sec and then wash with 70 uL in dPBS and pelleted 2×s (2000 rpm for 5 min) and 50 ul wash in FACS buffer pelleted 1×s (2000 rpm for 5 min). Mix on shaker for 30 sec. For Intracellular markers staining (MX-1): Add 50 ul of BD Perm buffer III and mix on shaker for 30 sec. Incubate on ice for 30 minutes (in the dark). Wash with 50 uL of FACS buffer 2× (spin @2300 rpm×5 min after perm) followed by mixing on shaker for 30 sec. Resuspended in 20 ul of FACS buffer containing MX1 antibody ( )(4812)-Alexa 647: Novus Biologicals #NBP2-43704AF647) 20 ul FACS bf+0.8 ul hIgG+0.04 ul MX-1. Spin 1000 rpm for 1 min, mix on shaker for 30 se and the samples were incubated at RT in the dark for 45 minutes followed by washing 2×FACS buffer (spin @2300 rpm×5 min after perm). Resuspend 20 ul (35 uL total per well) of FACS buffer and cover with foil and place in 4° C. to read the following day. Plates were read on iQuePlus. The results were loaded into toolset and […] curves are generated in curve master. The y-axis 100% is set to 1 uM of resiquimod.

Row | EC50 (human TLR7) [µM] | EC50 (CD69) [µM] | Structure (SMILES)
1 | 0.0138 | 0.0106 | CCC[C@@H](CCO)Nc1nc(N)nc2cnn(Cc3ccc(CNC4CCC4)c4cccnc34)c12 [Compound 103, (3S)-3-{[5-amino-1-({5-[(cyclobutylamino)methyl]quinolin-8-yl}methyl)-1H-pyrazolo[4,3-d]pyrimidin-7-yl]amino}hexan-1-ol]
2 | 0.0217 | 0.0003 | CCC[C@@H](CCO)Nc1nc(N)nc2cnn(Cc3ccc(C4CCNCC4)c4cccnc34)c12 [Compound 141, (3S)-3-[(5-amino-1-{[5-(piperidin-4-yl)quinolin-8-yl]methyl}-1H-pyrazolo[4,3-d]pyrimidin-7-yl)amino]hexan-1-ol]
3 | 0.28 | 0.291 | CN1CCC(NC(=O)c2ccc(Cn3ncc4nc(N)nc(NCC5CC6(CC6)C5)c43)c3ncccc23)CC1 [Compound 116, 8-({5-amino-7-[({spiro[2.3]hexan-5-yl}methyl)amino]-1H-pyrazolo[4,3-d]pyrimidin-1-yl}methyl)-N-(1-methylpiperidin-4-yl)quinoline-5-carboxamide]
4 | 0.0086 |  | CCC[C@@H](CCO)Nc1nc(N)nc2cnn(Cc3ccc(C4CCN(C5CCOCC5)CC4)c4cccnc34)c12 [Compound 142, (3S)-3-{[5-amino-1-({5-[1-(oxan-4-yl)piperidin-4-yl]quinolin-8-yl}methyl)-1H-pyrazolo[4,3-d]pyrimidin-7-yl]amino}hexan-1-ol]
5 | 0.0552 | 0.0415 | CCCCNc1nc(N)nc2cnn(Cc3ccc(CNC4CCOCC4)c4cccnc34)c12 [Compound 109, N7-butyl-1-[(5-{[(oxan-4-yl)amino]methyl}quinolin-8-yl)methyl]-1H-pyrazolo[4,3-d]pyrimidine-5,7-diamine]
6 | 0.0676 | 0.11 | CCC[C@@H](CCO)Nc1nc(N)nc2cnn(Cc3ccc(C(=O)N4CC(OC)C4)c4cccnc34)c12 [Compound 108, (3S)-3-[(5-amino-1-{[5-(3-methoxyazetidine-1-carbonyl)quinolin-8-yl]methyl}-1H-pyrazolo[4,3-d]pyrimidin-7-yl)amino]hexan-1-ol]
7 |  | 0.0919 | CCC[C@@H](CCO)Nc1nc(N)nc2cnn(Cc3ccc(C(=O)N4CCN(CCOC)CC4)c4cccnc34)c12 [Compound 131, (3S)-3-{[5-amino-1-({5-[4-(2-methoxyethyl)piperazine-1-carbonyl]quinolin-8-yl}methyl)-1H-pyrazolo[4,3-d]pyrimidin-7-yl]amino}hexan-1-ol]
8 | 0.0354 | 0.194 | CCC[C@@H](CCO)Nc1nc(N)nc2cnn(Cc3ccc(C(=O)N4CCC(CCO)CC4)c4cccnc34)c12 [Compound 134, (3S)-3-{[5-amino-1-({5-[4-(2-hydroxyethyl)piperidine-1-carbonyl]quinolin-8-yl}methyl)-1H-pyrazolo[4,3-d]pyrimidin-7-yl]amino}hexan-1-ol]
9 | 0.732 | 0.661 | CCC[C@@H](CCO)Nc1nc(N)nc2c(C)nn(Cc3ccc(C(=O)NC4CCN(C)CC4)c4cccnc34)c12 [Compound 123, 8-[(5-amino-7-{[(3S)-1-hydroxyhexan-3-yl]amino}-3-methyl-1H-pyrazolo[4,3-d]pyrimidin-1-yl)methyl]-N-(1-methylpiperidin-4-yl)quinoline-5-carboxamide]
10 | 0.0083 | 0.0211 | CCC[C@@H](CCO)Nc1nc(N)nc2cnn(Cc3ccc(CN4C[C@H]5CN(C)C[C@H]5C4)c4cccnc34)c12 [Compound 140, (3S)-3-({1-[(5-{[(3aR,6aS)-5-methyl-octahydropyrrolo[3,4-c]pyrrol-2-yl]methyl}quinolin-8-yl)methyl]-5-amino-1H-pyrazolo[4,3-d]pyrimidin-7-yl}amino)hexan-1-ol]
11 | 0.191 | 0.0497 | CCC[C@@H](CCO)Nc1nc(N)nc2cnn(Cc3ccc(C(=O)N4C[C@H]5C[C@@H]4CN5C)c4cccnc34)c12 [Compound 126, (3S)-3-{[5-amino-1-({5-[(1R,4R)-5-methyl-2,5-diazabicyclo[2.2.1]heptane-2-carbonyl]quinolin-8-yl}methyl)-1H-pyrazolo[4,3-d]pyrimidin-7-yl]amino}hexan-1-ol]
12 |  | 0.0833 | CCC[C@@H](CCO)Nc1nc(N)nc2cnn(Cc3ccc(C(=O)N(C)C4CCOCC4)c4cccnc34)c12 [Compound 129, 8-[(5-amino-7-{[(3S)-1-hydroxyhexan-3-yl]amino}-1H-pyrazolo[4,3-d]pyrimidin-1-yl)methyl]-N-methyl-N-(oxan-4-yl)quinoline-5-carboxamide]
13 |  | 0.0134 | CCC[C@@H](CCO)Nc1nc(N)nc2cnn(Cc3ccc(CNC4CCOCC4)c4cccnc34)c12 [Compound 104, (3S)-3-({5-amino-1-[(5-{[(oxan-4-yl)amino]methyl}quinolin-8-yl)methyl]-1H-pyrazolo[4,3-d]pyrimidin-7-yl}amino)hexan-1-ol]
14 |  | 0.0497 | CCC[C@@H](CCO)Nc1nc(N)nc2cnn(Cc3ccc(C(=O)N4CC5(CN(C)C5)C4)c4cccnc34)c12 [Compound 130, (3S)-3-({5-amino-1-[(5-{6-methyl-2,6-diazaspiro[3.3]heptane-2-carbonyl}quinolin-8-yl)methyl]-1H-pyrazolo[4,3-d]pyrimidin-7-yl}amino)hexan-1-ol]
15 | 0.0061 |  | CCC[C@@H](CCO)Nc1nc(N)nc2cnn(Cc3ccc(C4CCN(C(C)C)CC4)c4cccnc34)c12 [Compound 143, (3S)-3-{[5-amino-1-({5-[1-(propan-2-yl)piperidin-4-yl]quinolin-8-yl}methyl)-1H-pyrazolo[4,3-d]pyrimidin-7-yl]amino}hexan-1-ol]
16 |  | 0.102 | CCC[C@@H](CCO)Nc1nc(N)nc2cnn(Cc3ccc(C(=O)N4CC(CCO)C4)c4cccnc34)c12 [Compound 132, (3S)-3-{[5-amino-1-({5-[3-(2-hydroxyethyl)azetidine-1-carbonyl]quinolin-8-yl}methyl)-1H-pyrazolo[4,3-d]pyrimidin-7-yl]amino}hexan-1-ol]
